These results are taken from patent publication US9771358B2, “Dihydropyrimidine compounds and their application in pharmaceuticals” (SUNSHINE LAKE PHARMA CO., LTD., priority 2014, dated 2017).

Where two headings read alike, the source gives them in different places.

A word on the EC50: it is the concentration giving half of the maximal effect. One may read the Cmax as the maximum level reached in the sampled fluid or tissue. In general, Tmax refers to the time at which the peak concentration occurs. Usually clearance stands for a measure of how efficiently the substance is removed, as volume per time. By half-life is commonly meant the time in which the quantity being followed falls by half. For orientation: AUC(0-inf) means total exposure, with the tail of the curve extrapolated. In general, CLint scaled refers to a measure of how fast metabolising enzymes remove a compound, apart from limits set by blood flow.

Series [1] relates to HBV. As to the kind of experiment: In-vitro anti-HBV activity in stable HBV-producing cell line (HepG2.2.15), HBV DNA by qPCR. Format: cell-based. As to conditions: Hepatitis B virus, 168 h; HepG2.2.15 cells, HBV DNA in culture fluid, day 7, top concentration 16.4 μM. In outline:
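HepG2.2.15 cells are dosed 24 hours after seeding, top concentration 16.4 μM with 3-fold dilutions over 9 points in duplicate, and medium is refreshed on day 4. Supernatant HBV DNA is quantified by qPCR on day 7 against DMSO control, and EC50 comes from a four-parameter logistic fit.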
In general terms: Quantitative PCR measures a nucleic acid by following its amplification.

A short description of series [2]: PK of test compounds in beagle. Format: in vivo, beagle dog. As to conditions: for AUC(0-inf): AUC in 0 hour to infinite time. The method, then: The test compounds were administrated to beagle dog by gavage in dose of 2.5 mg/kg or 5 mg/kg, or by intravenous injection in dose of 1 mg/kg or 2 mg/kg. Blood sample was collected at 0.083, 0.25, 0.5, 1, 2, 4, 6, 8 and 24 hours from vein after administration into anticoagulation tubes with EDTA-K2. The test compounds were extracted from plasma samples and chromatographed on a tandem mass spectrometer. Quantitation was performed using multiple reaction monitoring (MRM). Pharmacokinetic parameters were calculated using WinNonlin 6.3 software with non compartment model.

The nature of series [3]: Stability in liver microsome, human. Format: in vitro ADME. As to conditions: liver microsomes; human liver microsome 0.1 mg/mL, compound 1 μM, NADPH 2 mM. The method, then: (§1) Then two parallel samples were prepared. After a 10 minutes preincubation at 37° C., 15 μL of NADPH solution (8 mM) was added according to the point-in-time. The final concentration of the text compound was 1 μM, the concentration of liver microsome was 0.1 mg/mL, the final concentration of NADPH was 2 mM. The incubations were last for 0, 15, 30, 60 min respectively, and then 150 μL of acetonitrile (include interior label) was added to the mixture system. After dilution with acetonitrile, the samples were centrifuged for 5 minutes in 4000 rpm. The supernatant liquid was collected for LC-MS/MS analysis.

Series [4] can be described thus: Stability in liver microsome, dog. Format: in vitro ADME. As to conditions: liver microsomes; dog liver microsome 0.1 mg/mL, compound 1 μM, NADPH 2 mM. How it is done:
as §1

Series [5] in a line: Stability in liver microsome, mouse. It counts as in vitro ADME. As to conditions: liver microsomes; mouse liver microsome 0.1 mg/mL, compound 1 μM, NADPH 2 mM. How it is done: as §1
Background: Liver microsomes are vesicles of endoplasmic reticulum, rich in cytochrome P450 enzymes.

A short description of series [6]: Stability in liver microsome, monkey. As to conditions: liver microsomes; monkey liver microsome 0.1 mg/mL, compound 1 μM, NADPH 2 mM. It counts as in vitro ADME. How it is done:
as §1

The compound `COC(=O)C1=C(CN2CCO[C@H](CCC(=O)O)C2)NC(c2nccs2)=N[C@H]1c1ccc(Cl)cc1Cl` [Example 13, 3-((R)-4-(((R)-6-(2,4-dichlorophenyl)-5-(methoxycarbonyl)-2-(thiazol-2-yl)-3,6-dihydropyrimidin-4-yl)methyl)morpholin-2-yl)propanoic acid] registered an EC50 in series [1] of 28 nM. Besides, the Cmax in series [2] (dog, plasma, iv, 1 mg/kg) stood at 2920 ng/mL; in series [2] (dog, plasma, po, 2.5 mg/kg), 6410 ng/mL. Besides, the time of peak concentration (Tmax) in series [2] (dog, plasma, iv, 1 mg/kg) came out at 0.083 h; in series [2] (dog, plasma, po, 2.5 mg/kg), 0.667 h. Besides, in series [2] (dog, plasma, iv, 1 mg/kg), the clearance was 1.49 mL/min/kg. Also, the half-life in series [2] (dog, plasma, iv, 1 mg/kg) is 5.08 h; in series [2] (dog, plasma, po, 2.5 mg/kg), 5.29 h. Besides, the AUC(0-inf) in series [2] (dog, plasma, iv, 1 mg/kg) turned out to be 11600 ng·h/mL; in series [2] (dog, plasma, po, 2.5 mg/kg) it was 33300 ng·h/mL. The AUC(0-t) in series [2] (dog, plasma, iv, 1 mg/kg, iv, 1 mg/kg, AUC in 0-24 hours, read-out: AUClast) is 11200 ng·h/mL; in series [2] (dog, plasma, po, 2.5 mg/kg, po, 2.5 mg/kg value multiplied by 2, read-out: AUClast ×2 (calculated by dosage)), 64400 ng·h/mL; in series [2] (dog, plasma, po, 2.5 mg/kg, po, 2.5 mg/kg, AUC in 0-24 hours, read-out: AUClast) it was 32200 ng·h/mL. Further, the Vd in series [2] (dog, plasma, iv, 1 mg/kg, read-out: Vss) was 0.526 L/kg. Also, the F in series [2] (po, 2.5 mg/kg, absolute bioavailability) was 105.6%. Also, the CLint scaled at 1 μM in series [3] was determined as 17.2 mL/min/kg; in series [4], 5.51 mL/min/kg; in series [5] it was 135 mL/min/kg; in series [6], 36 mL/min/kg. In addition, the half-life at 1 μM in series [3] was determined as 1.68 h; in series [4], 10.5 h; in series [5] it was 0.673 h; in series [6], 0.94 h.
